Assay results from patent US5747301A, “D-sorbitol dehydrogenase” (Roche Vitamins Inc., priority 1995, dated 1998).
Where a name gives a salt, the structure may show the parent alone. Read-outs that look alike come from different tables or passages of the source.

Tests used:
[1] = biological target: T1, D-sorbitol dehydrogenase (SLDH) (Gluconobacter thailandicus, UniProt Q8KIL1); assay: Effects of metal ions and inhibitors on the SLDH activity; format: biochemical, Gluconobacter suboxydans IFO 3255; set-up: The SLDH was isolated from the membrane fraction of Gluconobacter suboxydans IFO 3255 (DSM 9715); made in house; host or cells: Gluconobacter suboxydans IFO 3255 (DSM 9715), native source (not recombinant): purified from the solubilized membrane fraction; conditions: for activity at 960 µM / activity at 1890 µM: read-out: Relative activity (%); for effect on SLDH activity: addition of 0.91 mM
T1 sequence (Q8KIL1 30-740): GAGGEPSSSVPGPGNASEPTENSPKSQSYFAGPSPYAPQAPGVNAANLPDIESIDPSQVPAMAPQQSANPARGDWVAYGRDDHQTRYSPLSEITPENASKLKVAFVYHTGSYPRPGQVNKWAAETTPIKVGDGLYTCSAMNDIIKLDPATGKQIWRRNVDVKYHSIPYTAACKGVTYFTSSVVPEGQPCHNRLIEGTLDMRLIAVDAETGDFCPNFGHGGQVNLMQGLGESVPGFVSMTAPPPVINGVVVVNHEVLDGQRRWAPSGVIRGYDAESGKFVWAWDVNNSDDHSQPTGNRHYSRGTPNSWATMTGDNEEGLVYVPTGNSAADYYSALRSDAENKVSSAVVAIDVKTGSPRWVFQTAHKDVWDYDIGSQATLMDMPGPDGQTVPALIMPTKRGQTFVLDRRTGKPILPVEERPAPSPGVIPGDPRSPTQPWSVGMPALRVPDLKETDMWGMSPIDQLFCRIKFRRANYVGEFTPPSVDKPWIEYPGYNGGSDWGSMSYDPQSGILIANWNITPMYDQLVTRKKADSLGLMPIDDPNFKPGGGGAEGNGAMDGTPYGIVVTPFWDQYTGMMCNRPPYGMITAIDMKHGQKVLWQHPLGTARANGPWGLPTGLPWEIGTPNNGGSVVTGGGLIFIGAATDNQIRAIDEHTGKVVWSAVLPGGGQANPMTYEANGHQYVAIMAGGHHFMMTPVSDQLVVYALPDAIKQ

[2] = biological target: T1, D-sorbitol dehydrogenase (SLDH); assay: Substrate specificity of the purified D-sorbitol dehydrogenase (DCIP reduction enzyme assay); format: biochemical, Gluconobacter suboxydans IFO 3255; set-up: The SLDH was isolated from the membrane fraction of Gluconobacter suboxydans IFO 3255 (DSM 9715); made in house; host or cells: Gluconobacter suboxydans IFO 3255 (DSM 9715), native source (not recombinant): purified from the solubilized membrane fraction; conditions: for activity at 100000 µM: read-out: Relative activity
[3] = tested on: membrane-bound D-sorbitol dehydrogenase; conditions: Shinagawa et al. enzyme; cited from earlier work
[4] = biological target: T1, D-sorbitol dehydrogenase (SLDH); conditions: conversion of D-sorbitol to L-sorbose
[5] = substrate: OC[C@@H](O)[C@@H](O)[C@H](O)[C@@H](O)CO; assay: Effects of substrate concentration on reaction rate (Km); format: biochemical, Gluconobacter suboxydans IFO 3255; conditions: other: D-sorbitol 0.5 to 80 mM; DCIP as electron acceptor
Procedure: The velocity of the oxidizing reaction on varying the concentration of D-sorbitol from 0.5 to 80 mM was measured to determine the Km value for D-sorbitol. The apparent Michaelis constant was calculated to be 18 mM with DCIP as an electron acceptor for the reaction.

[6] = metal 0.91 mM, percentage of the reaction rate without metal compounds
[7] = metal 1.79 mM, percentage of the reaction rate without metal compounds
[8] = substrate solutions 100 mM, percent of the reaction rate obtained with D-sorbitol
[9] = inhibitor 0.96 mM, percentage of the reaction rate without inhibitors
[10] = inhibitor 1.89 mM, percentage of the reaction rate without inhibitors

O.O.O.O=[N+]([O-])[O-].O=[N+]([O-])[O-].[Cu+2] [Cu(NO3)2.3H2 O]
Relative activity (%) [1, 6]: 0% | Relative activity (%) [1, 7]: 0%

O.O.[Cl][Cu][Cl] [CuCl2.2H2 O]
Relative activity (%) [1, 6]: 0% | Relative activity (%) [1, 7]: 0%

CO [Methanol]
activity at 100000 µM [2]: 0%

OC[C@H]1OC(O)[C@H](O)[C@@H](O)[C@@H]1O (stereo partly drawn) [D-Glucose]
activity at 100000 µM [2]: 0%

OC[C@@H](O)[C@@H](O)CO [meso-Erythritol]
oxidation by SLDH ([2]; substrate solutions 100 mM): highly oxidized | activity at 100000 µM [2, 8]: 172% | oxidation by the enzyme [3]: did not oxidize

O=C(O)CF [Sodium fluoroacetate]
activity at 960 µM [1]: 104% | activity at 1890 µM [1]: 108%

OC[C@@H](O)[C@@H](O)[C@@H](O)CO [D-Adonitol]
activity at 100000 µM [2, 8]: 66.6%

MnSO4.4~6H2 O
Relative activity (%) [1, 6]: 88% | Relative activity (%) [1, 7]: 88%

O=S(=O)([O-])[O-].O=S(=O)([O-])[O-].O=S(=O)([O-])[O-].[Fe+3].[Fe+3] [Fe2 (SO4)3.xH2 O]
Relative activity (%) [1, 6]: 0% | Relative activity (%) [1, 7]: 0%

CCO [Ethanol]
activity at 100000 µM [2]: 0%

O.O.O.O.O.O.O.O=[As]([O-])([O-])O.[Na+].[Na+] [Na2 HAsO4.7H2 O]
Relative activity (%) [1, 9]: 116.7% | Relative activity (%) [1, 10]: 120.0%

[Cl][Ti]([Cl])([Cl])[Cl] [TiCl4]
Relative activity (%) [1, 6]: 96% | Relative activity (%) [1, 7]: 88%

OC[C@H]1O[C@@](CO)(O[C@H]2O[C@H](CO)[C@@H](O)[C@H](O)[C@H]2O)[C@@H](O)[C@@H]1O [Sucrose]
activity at 100000 µM [2, 8]: 0%

[Cu+2] [Cu^2+]
effect on SLDH activity [1]: strongly inhibitory

O=S(=O)([O-])[O-].[Cu+2] [CuSO4]
Relative activity (%) [1, 6]: 0% | Relative activity (%) [1, 7]: 0%

O=C(CO)[C@@H](O)[C@H](O)[C@@H](O)CO [L-Sorbose]
activity at 100000 µM [2, 8]: 0%

C=C[C@H]1CN2CC[C@H]1C[C@H]2[C@H](O)c1ccnc2ccc(OC)cc12 [Quinine-HCl, quinine hydrochloride]
activity at 960 µM [1, 9]: 79.2% | activity at 1890 µM [1, 10]: 75% | inhibitory by ([1]; inhibitors (Table 7)): 25%

O.O.O.O.O.O.[Cl-].[Cl-].[Co+2] [CoCl2.6H2 O]
Relative activity (%) [1, 6]: 117% | Relative activity (%) [1, 7]: 108%

O.O.O.O.[Cl][Mn][Cl] [MnCl2.4H2 O]
Relative activity (%) [1, 6]: 80% | Relative activity (%) [1, 7]: 88%

O.O.[Na+].[Na+].[O]=[Mo](=[O])([O-])[O-] [Na2 MoO4.2H2 O]
Relative activity (%) [1, 6]: 68% | Relative activity (%) [1, 7]: 96%

OC[C@@H](O)[C@H](O)[C@@H](O)CO [D-Xylitol]
activity at 100000 µM [2, 8]: 0%

[Cl-].[Cl-].[Zn+2] [ZnCl2]
Relative activity (%) [1, 6]: 56% | Relative activity (%) [1, 7]: 32%

CCN1C(=O)C=CC1=O [N-Ethylmaleimide]
activity at 960 µM [1, 9]: 117% | activity at 1890 µM [1]: 100%

[Ca+2].[Cl-].[Cl-] [CaCl2]
Relative activity (%) [1, 6]: 96% | Relative activity (%) [1, 7]: 96%

O.O.O.O.O.O.[Cl-].[Cl-].[Mg+2] [MgCl2.6H2 O]
Relative activity (%) [1, 6]: 88% | Relative activity (%) [1, 7]: 92%

O=C(CO)[C@@H](O)[C@H](O)[C@H](O)CO [D-Fructose]
activity at 100000 µM [2, 8]: 0%

O=O [oxygen]
use as electron acceptor [4]: does not utilize oxygen as an electron acceptor

OC[C@@H](O)[C@@H](O)[C@H](O)[C@H](O)CO [D-Mannitol]
activity at 100000 µM [2]: 49.9% | reaction rate relative to D-sorbitol [3]: 5%

O=C(O)CN(CCN(CC(=O)O)CC(=O)O)CC(=O)O [EDTA]
activity at 960 µM [1]: 96.7% | activity at 1890 µM [1]: 100%

[N-]=[N+]=[N-].[Na+] [NaN3]
Relative activity (%) [1, 9]: 91.7% | Relative activity (%) [1, 10]: 112.5%

O.O.O.O.O=[N+]([O-])[O-].O=[N+]([O-])[O-].[Ca+2] [Ca(NO3)2.4H2 O]
Relative activity (%) [1, 6]: 96% | Relative activity (%) [1, 7]: 96%

[F-].[Na+] [Sodium fluoride]
Relative activity (%) [1, 9]: 100% | Relative activity (%) [1, 10]: 100%

O.O.O.O.O.O.O.O=S(=O)([O-])[O-].[Zn+2] [ZnSO4.7H2 O]
Relative activity (%) [1, 6]: 44% | Relative activity (%) [1, 7]: 40%

O.O.O.O.O.O.O=S(=O)([O-])[O-].[Ni+2] [NiSO4.6H2 O]
Relative activity (%) [1, 6]: 88% | Relative activity (%) [1, 7]: 108%

O=C(O)CI [Monoiodoacetate]
inhibitory by [1]: 75% | activity at 960 µM [1]: 75% | activity at 1890 µM [1]: 25%

OC[C@@H](O)C(O)[C@H](O)CO [D-Arabitol]
oxidation by SLDH ([2]; substrate solutions 100 mM): highly oxidized | activity at 100000 µM [2, 8]: 175% | oxidation by the enzyme [3]: did not oxidize

[Fe+3] [Fe^3+]
effect on SLDH activity [1]: strongly inhibitory

OCC(O)CO [Glycerol]
oxidation by SLDH ([2]; substrate solutions 100 mM): highly oxidized | activity at 100000 µM [2, 8]: 117%

OC[C@@H](O)[C@@H](O)[C@H](O)[C@@H](O)CO [D-Sorbitol]
activity at 100000 µM [2]: 100% | oxidation by SLDH ([2]; substrate solutions 100 mM): highly oxidized

B1: D-sorbitol dehydrogenase (SLDH) (Gluconobacter thailandicus) (protein)
chain: T1 sequence (Q8KIL1 30-740)
notes: The SLDH was isolated from the membrane fraction of Gluconobacter suboxydans IFO 3255 (DSM 9715); made in house; host or cells: Gluconobacter suboxydans IFO 3255 (DSM 9715), native source (not recombinant): purified from the solubilized membrane fraction
Km [5]: 18 mM
